# Assay results: patent US12692261B2, “Substituted heterocyclic compounds and therapeutic uses thereof” (Bayer Aktiengesellschaft, priority 2020, dated 2026)
# Legend:
# [1] = target: T1, full-length human CSNK1A1 (Homo sapiens, UniProt P48729); experiment: CSNK1A1 High ATP Assay (ADP-Glo, 1 mM ATP); assay type: biochemical; conditions: Table 3, read-out: CSNK1A1 high ATP assay IC50 [mol/l] (median);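 note: 30 min kinase reaction at 22 °C with 100 µM peptide substrate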
# T1 construct: N-terminal Glutathion-S-Transferase (GST) and full-length human CSNK1A1; purchased Life Technologies PV4174; host or cells: baculovirus infected insect cells
# T1 sequence (P48729 whole entry): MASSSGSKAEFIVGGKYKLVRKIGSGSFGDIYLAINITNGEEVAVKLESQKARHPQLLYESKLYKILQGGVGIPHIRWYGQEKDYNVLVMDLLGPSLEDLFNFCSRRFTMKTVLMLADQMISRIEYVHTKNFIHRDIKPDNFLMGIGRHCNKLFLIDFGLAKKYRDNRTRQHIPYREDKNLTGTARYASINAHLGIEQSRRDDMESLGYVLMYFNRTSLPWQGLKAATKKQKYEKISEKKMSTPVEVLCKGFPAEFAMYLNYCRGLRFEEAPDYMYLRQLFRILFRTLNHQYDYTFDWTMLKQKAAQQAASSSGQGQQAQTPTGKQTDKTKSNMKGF
# Method in brief: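 GST-tagged full-length human CSNK1A1 from baculovirus-infected insect cells (typically about 0.4 ng/μL), pre-incubated with compound 15 min at 22 °C. Reaction with biotinylated peptide biotin-Ahx-KRRRAL-pS-VASLPGL at 1 mM ATP. ADP formed read by ADP-Glo luminescence.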
# [2] = target: T2, full-length human CSNK1D (Homo sapiens, UniProt P48730); experiment: CSNK1D Assay (ADP-Glo, 1 μM ATP); assay type: biochemical; conditions: Table 3, read-out: CSNK1D IC50 [mol/l] (median)
# T2 construct: N-terminal Glutathion-S-Transferase (GST) and full-length human CSNK1D; purchased Life Technologies PV3665; host or cells: baculovirus infected insect cells
# T2 sequence (P48730 whole entry): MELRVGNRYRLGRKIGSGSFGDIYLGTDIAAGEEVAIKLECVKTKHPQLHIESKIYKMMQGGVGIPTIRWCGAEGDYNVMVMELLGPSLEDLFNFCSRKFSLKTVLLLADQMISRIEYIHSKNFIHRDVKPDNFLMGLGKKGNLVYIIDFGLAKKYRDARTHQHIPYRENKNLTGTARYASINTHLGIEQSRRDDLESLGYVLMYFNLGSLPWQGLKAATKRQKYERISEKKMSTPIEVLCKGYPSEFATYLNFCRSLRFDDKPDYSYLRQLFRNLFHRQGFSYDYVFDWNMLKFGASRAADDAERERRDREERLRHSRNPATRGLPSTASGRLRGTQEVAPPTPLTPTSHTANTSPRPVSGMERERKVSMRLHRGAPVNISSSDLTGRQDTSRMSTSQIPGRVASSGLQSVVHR
# Method in brief: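 Enzyme is N-terminal GST-tagged full-length human CSNK1D from baculovirus-infected insect cells (typically about 0.5 ng/μL), with a biotinylated peptide substrate and 1 μM ATP. Compound pre-incubated 15 min at 22° C in HEPES pH 7.5 buffer; ADP formed is read by ADP-Glo luminescence.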
SMILES,IC50 [1],IC50 [2]
"COc1cnc2c(-c3ccccn3)c(-c3ccnc(NC(=O)C(CC(F)F)c4ccc(F)cc4)c3)[nH]c2c1 (stereo not shown) [Example 81, 4,4-difluoro-2-(4-fluorophenyl)-N-{4-[6-methoxy-3-(pyridin-2-yl)-1H-pyrrolo[3,2-b]pyridin-2-yl]pyridin-2-yl}butanamide]",4.02 nM,5.85 nM
"O=C(Nc1cc(-c2[nH]c3cc(Cl)cnc3c2-c2ccccn2)ccn1)C(CC(F)F)c1ccc(F)cc1 (single isomer, unassigned) [Example 88, (+)—N-{4-[6-chloro-3-(pyridin-2-yl)-1H-pyrrolo[3,2-b]pyridin-2-yl]pyridin-2-yl}-4,4-difluoro-2-(4-fluorophenyl)butanamide]",4.72 nM,7.42 nM
"O=C(Nc1cc(-c2[nH]c3c(OC[C@@H]4COCCO4)cc(F)nc3c2-c2ccccn2)ccn1)C(CC(F)F)c1ccc(F)cc1 (mixture of isomers) [Example 57, (2RS)—N-(4-{7-[(2S)-1,4-dioxan-2-ylmethoxy]-5-fluoro-3-(pyridin-2-yl)-1H-pyrrolo[3,2-b]pyridin-2-yl}pyridin-2-yl)-4,4-difluoro-2-(4-fluorophenyl)butanamide]",7.89 nM,6.33 nM
"O=C(Nc1cc(-c2[nH]c3c(OC[C@@H]4COCCO4)cc(F)nc3c2-c2ccccn2)ccn1)C(CC(F)F)c1ccc(F)cc1 (single isomer, unassigned) [Example 59, (2R or S)—N-{4-[7-{[(2S)-1,4-dioxan-2-yl]methoxy}-5-fluoro-3-(pyridin-2-yl)-1H-pyrrolo[3,2-b]pyridin-2-yl]pyridin-2-yl}-4,4-difluoro-2-(4-fluorophenyl)butanamide]",12.7 nM,19.6 nM
"COc1cnc2c(-c3ccccn3)c(-c3ccnc(NC(=O)C(CC(F)F)c4ccc(F)cc4)c3)[nH]c2c1 (single isomer, unassigned) [Example 82, 4,4-difluoro-2-(4-fluorophenyl)-N-{4-[6-methoxy-3-(pyridin-2-yl)-1H-pyrrolo[3,2-b]pyridin-2-yl]pyridin-2-yl}butanamide]",2.68 nM,3.17 nM
"O=C(Nc1cc(-c2[nH]c3c(O[C@H]4CCOC4)ncnc3c2-c2ccccn2)ccn1)C(CC(F)F)c1ccc(F)cc1 (single isomer, unassigned) [Example 74, (2R or S)-4,4-difluoro-2-(4-fluorophenyl)-N-{4-[4-{[(3S)-oxolan-3-yl]oxy}-7-(pyridin-2-yl)-5H-pyrrolo[3,2-d]pyrimidin-6-yl]pyridin-2-yl}butanamide]",35.8 nM,55.4 nM
"O=C(Nc1cc(-c2[nH]c3cc(Cl)nnc3c2-c2ccccn2)ccn1)C(CC(F)F)c1ccc(F)cc1 (racemic) [Example 68, (2RS)—N-{4-[3-chloro-7-(pyridin-2-yl)-5H-pyrrolo[3,2-c]pyridazin-6-yl]pyridin-2-yl}-4,4-difluoro-2-(4-fluorophenyl)butanamide]",6.93 nM,14.4 nM
"O=C(Nc1cc(-c2[nH]c3cc(Cl)cnc3c2-c2ccccn2)ccn1)C(CC(F)F)c1ccc(F)cc1 (single isomer, unassigned) [Example 89, (−)—N-{4-[6-chloro-3-(pyridin-2-yl)-1H-pyrrolo[3,2-b]pyridin-2-yl]pyridin-2-yl}-4,4-difluoro-2-(4-fluorophenyl)butanamide]",89 nM,104 nM
"Cc1ccnc2c(-c3ccccn3)c(-c3ccnc(NC(=O)C(CC(F)F)c4ccc(F)cc4)c3)[nH]c12 (stereo not shown) [Example 84, 4,4-difluoro-2-(4-fluorophenyl)-N-{4-[7-methyl-3-(pyridin-2-yl)-1H-pyrrolo[3,2-b]pyridin-2-yl]pyridin-2-yl}butanamide]",4.77 nM,7.35 nM
"O=C(Nc1cc(-c2[nH]c3ncc(F)nc3c2-c2ccccn2)ccn1)C(CC(F)F)c1ccc(F)cc1 (single isomer, unassigned) [Example 64, (2R or S)-4,4-difluoro-2-(4-fluorophenyl)-N-{4-[2-fluoro-7-(pyridin-2-yl)-5H-pyrrolo[2,3-b]pyrazin-6-yl]pyridin-2-yl}butanamide]",23 nM,40.4 nM
"O=C(Nc1cc(-c2[nH]c3c(OCC(F)F)ncnc3c2-c2ccccn2)ccn1)C(CC(F)F)c1ccc(F)cc1 (racemic) [Example 78, (2RS)—N-{4-[4-(2,2-difluoroethoxy)-7-(pyridin-2-yl)-5H-pyrrolo[3,2-d]pyrimidin-6-yl]pyridin-2-yl}-4,4-difluoro-2-(4-fluorophenyl)butanamide]",5.16 nM,5.15 nM
"O=C(Nc1cc(-c2[nH]c3c(O[C@H]4CCOC4)cc(F)nc3c2-c2ccccn2)ccn1)C(CC(F)F)c1ccc(F)cc1 (single isomer, unassigned) [Example 54, (2R or S)-4,4-difluoro-N-{4-[5-fluoro-7-{[(3S)-oxolan-3-yl]oxy}-3-(pyridin-2-yl)-1H-pyrrolo[3,2-b]pyridin-2-yl]pyridin-2-yl}-2-(4-fluorophenyl)butanamide]",4.22 nM,3.7 nM
"Cc1cnc2c(-c3ccccn3)c(-c3ccnc(NC(=O)C(CC(F)F)c4ccc(F)cc4)c3)[nH]c2n1 (stereo not shown) [Example 85, 4,4-difluoro-2-(4-fluorophenyl)-N-{4-[3-methyl-7-(pyridin-2-yl)-5H-pyrrolo[2,3-b]pyrazin-6-yl]pyridin-2-yl}butanamide]",4.21 nM,7.11 nM
"CN1CCN(c2cc(F)nc3c(-c4ccccn4)c(-c4ccnc(NC(=O)C(CC(F)F)c5ccc(F)cc5)c4)[nH]c23)CC1 (racemic) [Example 56, (2RS)-4,4-difluoro-N-{4-[5-fluoro-7-(4-methylpiperazin-1-yl)-3-(pyridin-2-yl)-1H-pyrrolo[3,2-b]pyridin-2-yl]pyridin-2-yl}-2-(4-fluorophenyl)butanamide]",3.19 nM,6.67 nM
"O=C(Nc1cc(-c2[nH]c3c(O[C@H]4CCOC4)cc(F)nc3c2-c2ccccn2)ccn1)C(CC(F)F)c1ccc(F)cc1 (mixture of isomers) [Example 53, (2RS)-4,4-difluoro-N-{4-[5-fluoro-7-{[(3S)-oxolan-3-yl]oxy}-3-(pyridin-2-yl)-1H-pyrrolo[3,2-b]pyridin-2-yl]pyridin-2-yl}-2-(4-fluorophenyl)butanamide]",6 nM,7.31 nM
"O=C(Nc1cc(-c2[nH]c3c(OCC(F)F)ncnc3c2-c2ccccn2)ccn1)C(CC(F)F)c1ccc(F)cc1 (single isomer, unassigned) [Example 79, (2R or S)—N-{4-[4-(2,2-difluoroethoxy)-7-(pyridin-2-yl)-5H-pyrrolo[3,2-d]pyrimidin-6-yl]pyridin-2-yl}-4,4-difluoro-2-(4-fluorophenyl)butanamide]",3.1 nM,3.27 nM
"O=C(Nc1cc(-c2[nH]c3ccc(F)nc3c2-c2ccccn2)ccn1)C(CC(F)F)c1ccc(F)cc1 (racemic) [Example 1, 4,4-difluoro-2-(4-fluorophenyl)-N-{4-[5-fluoro-3-(pyridin-2-yl)-1H-pyrrolo[3,2-b]pyridin-2-yl]pyridin-2-yl}butanamide]",61.3 nM,15.7 nM
"O=C(Nc1cc(-c2[nH]c3c(O[C@H]4CCOC4)cc(F)nc3c2-c2ccccn2)ccn1)C(CC(F)F)c1ccc(F)cc1 (single isomer, unassigned) [Example 55, (2R or S)-4,4-difluoro-N-{4-[5-fluoro-7-{[(3S)-oxolan-3-yl]oxy}-3-(pyridin-2-yl)-1H-pyrrolo[3,2-b]pyridin-2-yl]pyridin-2-yl}-2-(4-fluorophenyl)butanamide]",18.3 nM,24.9 nM
"O=C(Nc1cc(-c2[nH]c3ccc(F)nc3c2-c2ccccn2)ccn1)[C@@H](CC(F)F)c1ccc(F)cc1 (single isomer, unassigned) [Example 2]",5 nM,2.63 nM
"O=C(Nc1cc(-c2[nH]c3c(OCC(F)F)ncnc3c2-c2ccccn2)ccn1)C(CC(F)F)c1ccc(F)cc1 (single isomer, unassigned) [Example 80, (2R or S)—N-{4-[4-(2,2-difluoroethoxy)-7-(pyridin-2-yl)-5H-pyrrolo[3,2-d]pyrimidin-6-yl]pyridin-2-yl}-4,4-difluoro-2-(4-fluorophenyl)butanamide]",16.9 nM,26.4 nM
